This note sets out measurements from ChEMBL document CHEMBL1139189, “Preparation of novel antibacterial agents. Replacement of the central aromatic ring with heterocycles” (2007).

Converted amounts (≈) assume the structure as drawn.

Common to all, as to format: functional
Assay [1] has as its system Staphylococcus aureus. Description: Antibacterial activity against Staphylococcus aureus UC 9218 in presence of 10% human serum.
Assay [2] concerns Staphylococcus aureus. Description: Antibacterial activity against Staphylococcus aureus UC 9218.
Assay [3] has as its system Enterococcus faecalis. Description: Antibacterial activity against Enterococcus faecalis UC 9217.
The test system of assay [4] is Streptococcus pneumoniae. In words: Antibacterial activity against Streptococcus pneumoniae UC 9912.
Assay [5] deals with Staphylococcus epidermidis. In words: Antibacterial activity against Staphylococcus epidermidis UC 12084.
The subject of assay [6] is Haemophilus influenzae. Description: Antibacterial activity against Haemophilus influenzae 30063.
For assay [7], the system named is Staphylococcus aureus. Description: Antibacterial activity against Staphylococcus aureus UC 9218 in presence of 5% human serum.

For `N#Cc1ccc(NC(=O)c2cc(-c3ccccc3)on2)c(C(=O)O)c1`, the MIC came out at 8 µg/mL in assay [1] and 0.25 µg/mL (≈ 0.75 µM) in assay [2].

Consider `N#Cc1ccc(NC(=O)c2coc(-c3ccccc3)n2)c(C(=O)O)c1`, for which the MIC is more than 128 µg/mL in assay [1] and 64 µg/mL (≈ 192 µM) in assay [2].

Turning to `N#Cc1ccc(NC(=O)c2nc(-c3ccccc3)cs2)c(C(=O)O)c1`, the figures for the MIC in assay [1] and in assay [2] were 32 µg/mL and 8 µg/mL (≈ 22.9 µM), respectively.

Turning to `N#Cc1ccc(NC(=O)c2ncc(-c3ccccc3)o2)c(C(=O)O)c1`, the values for the MIC in assay [1] and in assay [2] were 8 µg/mL and 0.5 µg/mL (≈ 1.5 µM), respectively.

As to `N#Cc1ccc(NC(=O)c2cc(-c3ccccc3)no2)c(C(=O)O)c1`, the results for the MIC in assay [1] and in assay [2] were 8 µg/mL and 0.5 µg/mL (≈ 1.5 µM), respectively.

For the compound `CCCN(CCC)S(=O)(=O)c1ccc(C(=O)Oc2cc3ccccc3cc2C(=O)Oc2cc3ccccc3cc2C(=O)O)cc1`, the MIC in assay [3] was 32 µg/mL (≈ 51.1 µM); in assay [4], 8 µg/mL (≈ 12.8 µM); in assay [5] it was 16 µg/mL (≈ 25.6 µM); in assay [6], more than 128 µg/mL; in assay [2], 16 µg/mL (≈ 25.6 µM).

Turning to `N#Cc1ccc(NC(=O)c2noc(-c3ccccc3)n2)c(C(=O)O)c1`, the MIC was 32 µg/mL in assay [1] and 4 µg/mL (≈ 12 µM) in assay [2].

`CCOc1nc(SCc2ccccc2)ncc1C(=O)Nc1ccc(C#N)cc1C(=O)O`: the MIC in assay [1] was more than 128 µg/mL; in assay [2], 8 µg/mL (≈ 18.4 µM).

On to `Cc1nn(-c2ccccc2)nc1C(=O)Nc1ccc(C#N)cc1C(=O)O`, for which the MIC in assay [1] was more than 128 µg/mL; in assay [2] it was 4 µg/mL (≈ 11.5 µM).

Regarding `N#Cc1ccc(NC(=O)c2noc3ccccc23)c(C(=O)O)c1`, the MIC in assay [1] was 16 µg/mL; in assay [2] it was 0.5 µg/mL (≈ 1.63 µM).

As for `N#Cc1ccc(NC(=O)c2cc3cccnc3s2)c(C(=O)O)c1`, the MIC in assay [1] worked out at 32 µg/mL; in assay [2], 4 µg/mL (≈ 12.4 µM).

In the case of `Cc1coc2cnc(C(=O)Nc3ccc(C#N)cc3C(=O)O)cc12`, the figures for the MIC in assay [1] and in assay [2] were 64 µg/mL and 16 µg/mL (≈ 49.8 µM), respectively.

On to `O=C(Nc1ccc(Br)cc1C(=O)O)c1ccc(S(=O)(=O)N2CCc3cc(Cl)ccc32)cc1`, for which the MIC was 32 µg/mL (≈ 59.7 µM) in assay [3]; 4 µg/mL (≈ 7.47 µM) in assay [4]; more than 128 µg/mL in assay [7]; 4 µg/mL (≈ 7.47 µM) in assay [5]; 128 µg/mL (≈ 239 µM) in assay [6]; 0.5 µg/mL (≈ 0.933 µM) in assay [2].

Consider `N#Cc1ccc(NC(=O)c2cc3cc(-c4ccccc4)oc3cn2)c(C(=O)O)c1`, for which the MIC in assay [1] and in assay [2] was more than 128 µg/mL in each case.

Take `N#Cc1ccc(NC(=O)c2cc(SCc3ccccc3)on2)c(C(=O)O)c1`: the MIC in assay [1] was 4 µg/mL; in assay [3], more than 128 µg/mL; in assay [4] it was more than 128 µg/mL; in assay [5], 0.125 µg/mL (≈ 0.329 µM); in assay [2] it was 0.125 µg/mL (≈ 0.329 µM).

Turning to `N#Cc1ccc(NC(=O)c2ncc(-c3ccccc3)s2)c(C(=O)O)c1`, the MIC in assay [1] was found to be 16 µg/mL; in assay [2], 1 µg/mL (≈ 2.86 µM).

For `N#Cc1ccc(NC(=O)c2nsc(-c3ccccc3)c2Cl)c(C(=O)O)c1`, the figures for the MIC in assay [1] and in assay [2] were 32 µg/mL and 0.5 µg/mL (≈ 1.3 µM), respectively.

For `N#Cc1ccc(NC(=O)c2cnccn2)c(C(=O)O)c1`, the MIC is more than 128 µg/mL in assay [1] and 128 µg/mL (≈ 477 µM) in assay [2].

As to `N#Cc1ccc(NC(=O)c2cc3ccccc3[nH]2)c(C(=O)O)c1`, the results for the MIC in assay [1] and in assay [2] were 32 µg/mL and 2 µg/mL (≈ 6.55 µM), respectively.

`N#Cc1ccc(NC(=O)c2nc3ccccc3s2)c(C(=O)O)c1`: the MIC in assay [1] amounted to 8 µg/mL; in assay [2], 0.25 µg/mL (≈ 0.773 µM).

Take `CCCC(CCC)NS(=O)(=O)c1ccc(C(=O)Nc2cc3ccccc3cc2C(=O)O)cc1`: the MIC in assay [3] is 128 µg/mL (≈ 273 µM); in assay [4], 64 µg/mL (≈ 137 µM); in assay [7], more than 128 µg/mL; in assay [5] it was 16 µg/mL (≈ 34.1 µM); in assay [6] it was more than 128 µg/mL; in assay [2], 64 µg/mL (≈ 137 µM).

With `N#Cc1ccc(NC(=O)c2cc3ccccc3o2)c(C(=O)O)c1`, the MIC in assay [1] was found to be 32 µg/mL; in assay [2], 2 µg/mL (≈ 6.53 µM).

On to `CN[C@H](CC(C)C)C(=O)N[C@H]1C(=O)N[C@@H](CC(N)=O)C(=O)N[C@H]2C(=O)N[C@H]3C(=O)N[C@H](C(=O)N[C@H](C(=O)O)c4cc(O)cc(O)c4-c4cc3ccc4O)[C@H](O)c3ccc(c(Cl)c3)Oc3cc2cc(c3O[C@@H]2O[C@H](CO)[C@@H](O)[C@H](O)[C@H]2O[C@H]2C[C@](C)(N)[C@H](O)[C@H](C)O2)Oc2ccc(cc2Cl)[C@H]1O` [VANCOMYCIN], for which the MIC is 1 µg/mL (≈ 0.69 µM) in assay [3], 0.25 µg/mL (≈ 0.173 µM) in assay [4] and 0.015 µg/mL (≈ 0.0104 µM) in assay [6].
